# In patent US20210000842A1, “TETRACYCLINE MANAGEMENT OF EGFR INHIBITOR ASSOCIATED DERMATOSES” (Foamix Pharmaceuticals Ltd., priority 2015, published 2021):
# “Also recorded” adds a separate entry of the source.
# Experiments:
# [1] = Compatibility study of minocycline hydrochloride with excipients (visual inspection); type: physicochemical; details: for Compatibility with Minocycline HCl: summary, tested after the storage for up to 3 weeks; for Compatibility with MCH: hydrophilic solvents: MCH: excipient 1:250, suspension at 25° C. and 40° C. for maximum of sixty days; for Compatibility with Minocycline HCl (discussion of compatibility studies): excipient named as label, storage up to 3 weeks; for Compatibility with MCH: surfactants: MCH:excipient 1:50, surfactant solubilized in mineral oil; for Compatibility with MCH: surfactants / Compatibility with MCH: oily emollients and waxes: 25° C. and 40° C.; for Effect of added anti-oxidant on oxidation of Minocycline HCl: waterless medium of propylene glycol and PEG 200; for Effect of added antioxidant on MCH degradation: MCH suspensions comprising water or non-compatible excipients; for Compatibility with MCH: oily emollients and waxes: MCH:excipient 1:250 for oily emollients and 1:50 for waxes, max sixty days
# Experimental: (§1) Active agent is incubated with various excipients individually at one or more temperatures and at different ratios of active agent to a single excipient for a certain fixed period or to the point where degradation was suspected. […] Visual inspection is a criterion for indication of compatibility. Any change of color indicates oxidation or degradation. […] Tests are also carried out with combinations of excipients.
# [2] = Doxycycline Monohydrate compatibility test; type: physicochemical; details: for Effect of added anti-oxidant on oxidation of Doxycycline Monohydrate: waterless medium of propylene glycol and PEG 200; for Visual inspection after the storage at 25° C. / Visual inspection after the storage at 40° C. / Visual inspection after the storage at 50° C. / Visual inspection at T-0: mixture of 1.04% w/w Doxycycline Monohydrate with the ingredient; for Visual inspection after the storage at 25° C. / Visual inspection after the storage at 40° C. / Visual inspection after the storage at 50° C.: stored two weeks; for Visual inspection at T-0: two weeks study
# Experimental: Active agent is incubated with various excipients individually at one or more temperatures and at different ratios of active agent to a single excipient for a certain fixed period or to the point where degradation was suspected. The period can be for example 3 or 7 or 14 or 21 or 28 days or longer. Visual inspection is a criterion for indication of compatibility. Any change of color indicates oxidation or degradation. […] Tests are also carried out with combinations of excipients.
# (§2) A similar compatibility study was conducted for Doxycycline Hyclate and Doxycycline Monohydrate.
# (§3) Different compositions of hydrophilic and hydrophobic solvents containing Doxycycline Hyclate (Set I and Set II) and Doxycycline Monohydrate (Set III) were prepared by weighing the antibiotic in a glass vial and shaking overnight with each solvent investigated.
# A similar compatibility test was performed on another form of Doxycycline—Doxycycline Monohydrate.
# [3] = Doxycycline Hyclate compatibility test; type: physicochemical; details: for Effect of added anti-oxidant on oxidation of Doxycycline Hyclate: waterless medium of propylene glycol and PEG 200; for Visual inspection after the storage at 25° C. / Visual inspection after the storage at 40° C. / Visual inspection after the storage at 50° C.: stored two weeks
# Experimental: as §1, §2, §3
# Group II included Doxycycline Hyclate mixed with various vehicles with addition of antioxidants like alpha tocopherol, butylated hydroxytoluene (BHT), and ascorbic acid.
# [4] = test system: EGFR inhibitor-induced rash; details: cited from earlier work
# [5] = cited from earlier work
# mouse = details: cited from earlier work
# [6] = test system: patients treated with EGFR inhibitors; details: patients treated with the EGFR inhibitor (Erlotinib 150 mg QD); cited from earlier work
# [7] = summary, tested after the storage for up to 3 weeks
# [8] = MCH:excipient 1:50, 25° C. and 40° C., visual inspection
# [9] = mixture of 1.04% w/w Doxycycline Hyclate with the ingredient
# [10] = mixtures of 1.04% w/w, excipient named as label, storage at 25° C., 40° C. and 50° C. for two weeks, listed as Ethanol 95%
# [11] = mixtures of 1.04% w/w, excipient named as label, storage at 25° C., 40° C. and 50° C. for two weeks, listed as ethanol 95%
# [12] = mixtures of 1.04% w/w, excipient named as label, storage at 25° C., 40° C. and 50° C. for two weeks
molecule,measurement,setting,value
C[Si]1(C)O[Si](C)(C)O[Si](C)(C)O[Si](C)(C)O[Si](C)(C)O1 [Cyclomethicone 5 NF],Compatibility with Minocycline HCl,[1],Yes
same,Compatibility with Doxycycline Monohydrate,[2]; [7],Yes
same,Compatibility with Doxycycline Hyclate,[3]; [7],Yes
OCC(O)CO [Glycerin],Compatibility with MCH: hydrophilic solvents,[1]; visual inspection,incompatible
same,Compatibility with Minocycline HCl (discussion of compatibility studies),[1],intensive oxidation
same,Compatibility with Minocycline HCl,[1],No
same,Compatibility with Doxycycline Monohydrate,[2]; [7],No
same,Compatibility with Doxycycline Hyclate,[3]; [7],No
SPAN 80,Compatibility with MCH: surfactants,[1]; visual inspection,incompatible
"CCOC(=O)c1ccc(C#Cc2ccc3c(c2)C(C)(C)CCS3)nc1 [tazarotene, Ethyl 6-[2-(4,4-dimethylthiochroman-6-yl)ethynyl] nicotinate]",Clinical benefit on EGFR inhibitor-induced rash,[4]; cream twice a day,no observed clinical benefit
same,Patients in whom the rash was assessed as more severe,[4]; cream twice a day,10%
O [water],Effect of addition of water on MCH suspended in compatible excipients,[1]; minimal quantities of water (100 μL) added,prompt degradation of MCH
Sorbitan Monostearate,Compatibility with Minocycline HCl,[1],Yes
same,Compatibility with Doxycycline Hyclate,[3]; [7],Yes
Doxycycline hyclate,Lipid solubility,[5],high degree
same,Solubility in water,[5],soluble
C[S+](C)[O-] [Dimethyl Sulfoxide],Compatibility with MCH: hydrophilic solvents,[1]; visual inspection,incompatible
"C[C@H]1c2cccc(O)c2C(=O)C2=C(O)[C@]3(O)C(=O)C(C(N)=O)=C(O)[C@@H](N(C)C)[C@@H]3[C@@H](O)[C@@H]21 [Doxycycline, doxycycline]",Oral acute toxicity LD50,mouse,1007 mg/kg
CCCCCCCCCCCCCCCCCCCCCCO [Behenyl alcohol],Compatibility with MCH: foam adjuvants,[1]; [8],compatible
SPAN 40,Compatibility with MCH: surfactants,[1]; visual inspection,incompatible
CC[C@@H]1/C=C(\C)C[C@H](C)C[C@H](OC)[C@H]2O[C@@](O)(C(=O)C(=O)N3CCCC[C@H]3C(=O)O[C@H](/C(C)=C/[C@@H]3CC[C@H](Cl)[C@H](OC)C3)[C@H](C)[C@@H](O)CC1=O)[C@H](C)C[C@@H]2OC [pimecrolimus],Lesion counts on treated side of the face,"[4]; half face study, cetuximab, after 2 weeks",significantly less
CCCCCCCCCCCCCCCCO [Cetyl alcohol],Compatibility with MCH: foam adjuvants,[1]; [8],compatible
CCOCCOCCO [Diethylene glycol monoethyl ether],Compatibility with MCH: hydrophilic solvents,[1]; visual inspection,incompatible
O=C1O[C@H]([C@@H](O)CO)C(O)=C1O [ascorbic acid],Effect of added anti-oxidant on oxidation of Minocycline HCl,[1],did not prevent the oxidation
same,Effect of added anti-oxidant on oxidation of Doxycycline Monohydrate,[2],did not prevent the oxidation
same,Effect of added anti-oxidant on oxidation of Doxycycline Hyclate,[3],did not prevent the oxidation
CCCOC(=O)c1cc(O)c(O)c(O)c1 [propyl gallate],Effect of added antioxidant on MCH degradation,[1],did not prevent MCH degradation
CO[C@H]1CO[C@H]2[C@@H]1OC[C@H]2OC [Dimethyl Isosorbide],Compatibility with MCH: hydrophilic solvents,[1]; visual inspection,incompatible
same,Compatibility with Minocycline HCl,[1],No
same,Visual inspection after the storage at 25° C.,[2],orange solution
same,Visual inspection after the storage at 40° C.,[2],orange solution
same,Visual inspection after the storage at 50° C.,[2],Orange solution
same,Visual inspection at T-0,[2],yellow solution
same,Compatibility with Doxycycline Monohydrate,[2]; [7],No
same,Visual inspection after the storage at 25° C.,[3]; [9],Yellow solution
same,Visual inspection after the storage at 40° C.,[3]; [9],Brownish orange
same,Visual inspection after the storage at 50° C.,[3]; [9],Orange solution
same,Visual inspection at T-0,"[3]; mixture of 1.04% w/w Doxycycline Hyclate with the ingredient, two weeks study",yellow solution
same,Compatibility with Doxycycline Hyclate,[3]; [7],No
CCCCCCCCCCCCCC(=O)OC(C)C [Isopropyl myristate],Compatibility with MCH: oily emollients and waxes,[1]; visual inspection,compatible
OCCCCO [Butylene Glycol],Compatibility with MCH: hydrophilic solvents,[1]; visual inspection,incompatible
same,Compatibility with Minocycline HCl,[1],No
same,Visual inspection after the storage at 25° C.,[2],Orange solution
same,Visual inspection after the storage at 50° C.,[2],black solution
same,Compatibility with Doxycycline Monohydrate,[2]; [7],No
same,Visual inspection after the storage at 50° C.,[3]; [9],Light orange solution
same,Compatibility with Doxycycline Hyclate,[3]; [7],No
CCCCCCCCCCCCCCCCCC(=O)OCC(O)CO (stereo not drawn) [Glyceryl monostearate],Compatibility with MCH: surfactants,[1]; visual inspection,incompatible
SPAN 60,Compatibility with MCH: surfactants,[1]; visual inspection,incompatible
CCCCCCCCCCCCCCO [Myristyl alcohol],Compatibility with MCH: foam adjuvants,[1]; [8],compatible
same,Compatibility with Minocycline HCl,[1],Yes
same,Compatibility with Doxycycline Hyclate,[3]; [7],Yes
Cyclomethicone,Compatibility with MCH: oily emollients and waxes,[1]; visual inspection,compatible
CCO [Ethanol],Compatibility with MCH: hydrophilic solvents,[1]; visual inspection,incompatible
same,Compatibility with Minocycline HCl (discussion of compatibility studies),[1],changed their colour from yellow to orange
same,Compatibility with Minocycline HCl,[1],No
same,Visual inspection after the storage at 25° C.,[2],Brown solution
same,Visual inspection after the storage at 40° C.,[2],Brown solution
same,Visual inspection after the storage at 50° C.,[2],Black solution
same,Compatibility with Doxycycline Monohydrate,[2]; [10],changed their colour from yellow to orange
same,Compatibility with Doxycycline Monohydrate,[2]; [11],oxidized
same,Compatibility with Doxycycline Monohydrate,[2]; [7],No
same,Compatibility with Doxycycline Hyclate,[3]; [10],stability
same,Compatibility with Doxycycline Hyclate,[3]; [11],stable
same,Compatibility with Doxycycline Hyclate,[3]; [7],Yes
Cc1c(C)c2c(c(C)c1O)CC[C@@](C)(CCC[C@H](C)CCC[C@H](C)CCCC(C)C)O2 [alpha-tocopherol],Effect of added antioxidant on MCH degradation,[1],did not prevent MCH degradation
same,Effect of added anti-oxidant on oxidation of Minocycline HCl,[1],did not prevent the oxidation
same,Effect of added anti-oxidant on oxidation of Doxycycline Monohydrate,[2],did not prevent the oxidation
same,Effect of added anti-oxidant on oxidation of Doxycycline Hyclate,[3],did not prevent the oxidation
CCCCCCCCCCCCCCCCCC(=O)O [Stearic acid],Compatibility with MCH: foam adjuvants,[1]; [8],compatible
CCCCCCCC/C=C\CCCCCCCCO [Oleyl alcohol],Compatibility with MCH: foam adjuvants,[1]; [8],compatible
same,Compatibility with Minocycline HCl,[1],Yes
same,Compatibility with Doxycycline Hyclate,[3]; [7],Yes
C#Cc1cccc(Nc2ncnc3cc(OCCOC)c(OCCOC)cc23)c1 [Erlotinib],Patients who developed a grade 3 rash,[6],9%
same,Patients who developed a rash in all grades,[6],75%
Sorbitan sesquistearate,Compatibility with MCH: surfactants,[1]; visual inspection,incompatible
CC(C)OC(=O)CCCCC(=O)OC(C)C [Disopropyl adipate],Compatibility with MCH: oily emollients and waxes,[1]; visual inspection,compatible
CC(O)CO (stereo not drawn) [Propylene glycol],Compatibility with MCH: hydrophilic solvents,[1]; visual inspection,incompatible
same,Compatibility with Minocycline HCl,[1],No
same,Compatibility with Doxycycline Monohydrate,[2]; [7],No
same,Compatibility with Doxycycline Hyclate,[3]; [7],No
CCCCCCCCCCCCCCCC(=O)O [Palmitic acid],Compatibility with MCH: foam adjuvants,[1]; [8],compatible
CC(C)OC(=O)CCCCC(=O)OC(C)C [Diisopropyl adipate],Compatibility with Minocycline HCl,[1],Yes
same,Compatibility with Doxycycline Monohydrate,[2]; [7],No
same,Compatibility with Doxycycline Hyclate,[3]; [7],Yes
CC(C)CCCCCCCCCCCCCCC(=O)O [Isostearic acid],Compatibility with MCH: foam adjuvants,[1]; [8],not compatible
same,Compatibility with Minocycline HCl,[1],No
same,Compatibility with Doxycycline Hyclate,[3]; [7],Yes
CCCCCCCCCCCCCCCCCCO [Stearyl alcohol],Compatibility with MCH: foam adjuvants,[1]; [8],compatible
same,Compatibility with Minocycline HCl,[1],Yes
same,Compatibility with Doxycycline Hyclate,[3]; [7],Yes
CCCCCCCCCCC(CO)CCCCCCCC (stereo not drawn) [Octyl dodecanol],Compatibility with MCH: oily emollients and waxes,[1]; visual inspection,compatible
same,Compatibility with Minocycline HCl (discussion of compatibility studies),[1],full compatibility; also recorded: compatible
same,Compatibility with Minocycline HCl,[1],Yes
same,Compatibility with Doxycycline Monohydrate,[2]; [12],incompatibility
same,Compatibility with Doxycycline Monohydrate,[2]; [7],No
same,Compatibility with Doxycycline Hyclate,[3]; [12],incompatibility
same,Compatibility with Doxycycline Hyclate,[3]; [7],No
Sorbitan Monolaurate,Compatibility with Minocycline HCl,[1],No
same,Visual inspection after the storage at 25° C.,[2],orange solution
same,Visual inspection after the storage at 40° C.,[2],Brown solution
same,Visual inspection after the storage at 50° C.,[2],brown solution
same,Visual inspection at T-0,[2],Brown mixture
same,Compatibility with Doxycycline Monohydrate,[2]; [7],No
same,Visual inspection after the storage at 25° C.,[3]; [9],Brown solution
same,Visual inspection after the storage at 40° C.,[3]; [9],Brown solution
same,Visual inspection after the storage at 50° C.,[3]; [9],Black solution
same,Compatibility with Doxycycline Hyclate,[3]; [7],No
CC1CCC(C(C)C)C(O)C1 (stereo not drawn) [Menthol],Compatibility with MCH: additives,[1]; [8],compatible
CC(C)CCCCCCCCCCCCCCCO [Isostearyl alcohol],Compatibility with MCH: foam adjuvants,[1]; [8],compatible
CCCCCCCC/C=C\CCCCCCCC(=O)O [Oleic acid],Compatibility with MCH: foam adjuvants,[1]; [8],compatible
